Each structure is given as a SMILES string.

Two molecules from patent publication US20070142465A1, “Macrophage activation inhibitor” (priority 2003, published 2007) can be followed below.

Experiment [1] relates to NF-κB. Nature of the experiment: Inhibition of NF-κB activation. The note with it: compared with (±)-DHM2EQ.
For experiment [2], the system named is RAW264.7 cells. Put plainly: TNF-α secretion from IL-1β-activated RAW264.7 cells. Conditions: IL-1β 10 ng/ml, 6 h. The experiment is classed as cell-based.
The test system of experiment [3] is RAW264.7 cells. Nature of the experiment: Phagocytosis of fluorescent-labeled E. coli by activated RAW264.7 cells. The experiment is classed as cell-based. An excerpt: Macrophages contribute to host defense mechanism by, when infected with bacteria, engulfing the whole or part of the bacteria as foreign matter and digesting the foreign matter in the lysosome containing hydrolytic enzymes, etc. This penomenon of engulfing foreign matter, referred to as phagocytosis, is marker of macrophage activation. Thus, by using as a marker phagocytotic ability of RAW264.7 cells derived from macrophages activated by the LPS or IL-1β stimulation, the effect of (±)-DHM2EQ on macrophage activation was examined.
500 μl of RAW264.7 cells were plated in each chamber at a concentration of 4×10^5 cells/ml in chamber slides. After an overnight incubation, (±)-DHM2EQ was added, and the slides were incubated for 2 hours. LPS (final concentration: 1 μg/ml) was then added, and the slides were incubated for 10 mins and then washed with 750 μl of PBS two times. Subsequently, PBS was removed and 250 μl of the solution containing fluorescent-labeled E. coli (Molecular probes, U.S.) (i.e. a solution of fluorescent-labeled E. coli diluted with […] of PBS) was added to each chamber, and the slides were incubated for 2 hours at room temperature the cells were then washed twice in 750 μl of PBS and the phagocytic ability of macrophage-derived RAW264.7 cells were observed under a fluorescence microscope and a phase-contrast microscope. In addition, in the activation using IL-1β, the phagocytic ability of macrophage-derived RAW264.7 cells was examined in the same manner as above, except that IL-1β (final concentration: 10 ng/ml) was added in place of LPS.

In experiment [4] the test system is RAW264.7 cells. Put plainly: IL-6 secretion from LPS-activated RAW264.7 cells (ELISA). Conditions: LPS 10 μg/ml, 24 h. The experiment is classed as cell-based.
The subject of experiment [5] is RAW264.7 cells. Put plainly: IL-1β secretion from LPS-activated RAW264.7 cells (ELISA). The experiment is classed as cell-based, mouse. Conditions: LPS 10 μg/ml, 24 h, 0, 1, 3, 10 μg/ml compound. As to the method:
Next, the effect of (±)-DHM2EQ on IL-1β secretion, which is another marker of macrophage activation in macrophage-derived RAW264.7 cells activated by […], was examined.
500 μl of RAW264.7 cells were plated in each well at a concentration of 4×10^5 cells/ml, and the plates were incubated at 37° C. for 1-day. (±)-DHM2EQ (final concentrations: 0, 1, 3, and 10 μg/ml) was then added followed by 2-hour incubation and then LPS (final concentration: 10 μg/ml) was added followed by 24-hour stimulation. After the stimulation, the cell supernatant was recovered (500 μ/l each), and centrifuged at 15000 rpm for 2 min, and the insoluble fractions were removed; the samples were thus obtained.
The amount of IL-1β secretion was examined using mouse IL-1β ELISA assay kit (R&D Systems; Minneapolis, U.S.). First, 50 μl of Reaction Buffer was added to 96-well microplates, on which mouse IL-1β antibody (polyclonal antibody) had been fixed, and 50 βl of the aforementioned sample were applied to each well of the plates. […] Subsequently, 100 μl of stopping solution was added and the OD value at 450 nm was measured using a microplate reader. Then, the concentration of IL-1β was determined from the calibration curve constructed using mouseIL-1β standard supplied with mouse IL-1β ELISA assay kit.
(In an ELISA, binding on a coated surface is turned into a signal by an enzyme label.)

In experiment [6] the test system is RAW264.7 cells. Nature of the experiment: COX-2 production in LPS-activated RAW264.7 cells (Western blot). The experiment is classed as cell-based. The note with it: LPS 10 μg/ml, 24 h, 1, 3, 10 μg/ml compound. The source says: It is known that macrophages activated by inflammatory stimuli and growth factor produces COX-2, a prostaglandin synthase, which is responsible for various pathological conditions such as inflammation, cancer cell proliferation, cancer development, angiogenesis, tumor metastasis, etc. Further, it has recently been known that, in systemic lupus erythematosus (SLE), which is an autoimmune disease, self-reactive T cells acquire resistance to apoptosis with increasing COX-2 expression (Nature Medicine 10, 411-415, 2004) Thus, on the assumption that use of (±)-DHM2EQ might make it possible to inhibit macrophage activation and thereby to suppress COX-2 production, the effect of (±)-DHM2EQ on COX-2 production in RAW264.7 cells derived from macrophages activated by LPS stimulation was examined.
RAW264.7 cells were plated at 4×10^6 cells/dish in a 100 mm dish (Coaster:Acton, Mass.) containing DMEM medium, and the plates were incubated overnight at 37° C. under 5% CO2. Then, (±)-DHM2EQ (final concentrations: 1, 3, and 10 μg/ml) was added followed by 2-hour incubation and then LPS (final concentration: 10 μg/ml) was added followed by 24-hour stimulation. The cells were then recovered and lysed with 65 μl of lysis buffer (50 mM Tris-HCl: pH 8.0, 1% NP-40, 20 mM EDTA, 100 mM NaVO4, 0.1 mg/ml leupeptin, 1 mM PMSF) and SDS-PAGE was performed. […]

The test system of experiment [7] is RAW264.7 cells. Nature of the experiment: Intracellular NO in RAW264.7 cells observed in situ with DAF-2DA fluorescence. The experiment is classed as cell-based. The note with it: IFN-γ + LPS, 10 μg/ml compound. As to the method:
Further, to observe suppression of NO production in situ in macrophage-derived RAW264.7 cells by (±)-DHM2EQ when LPS and IFN-γ are used in combination with (±)-DHM2EQ, intracellular NO was directly observed using diaminofluorescein-2 diacetate (DAF-2DA; Daiich Pure Chemicals).
500 μl of RAW264.7 cells were first plated in each chamber on chamber slides at a concentration of 6×10^5 cells/ml. After 1 day incubation under the condition of 37° C. in 5% CO2, (±)-DHM2EQ was added, followed by 2-hour incubation. Subsequently, IFN-γ (final concentration: 100 ng/ml) and LPS (final concentration: 10 μg/ml) were added, followed by 6-hour incubation. Then, the medium was changed to DAF-2DA-containing phosphate buffered saline (PBS; 8 g/l NaCl, 0.2 g/l KCl, 0.916 g/l Na2HPO4, 0.2 g/l KH2PO4), followed by further 2-hour incubation. The fluorescence images were then observed with a fluorescence microscope.

In experiment [8] the test system is RAW264.7 cells. Nature of the experiment: NO production in activated RAW264.7 cells (Griess reagent, OD570). The experiment is classed as cell-based. How it is done: It is known that, in macrophages, the expression of iNOS is induced by lipopolysaccharides such as LPS and interferons such as IFN-γ, thereby triggering NO production. Thus, by using macrophage-derived cultured cells, the influence of (±)-DHM2EQ on NO production when LPS and IFN-γ were used in combination with (±)-DHM2EQ was examined.
(§1) Since NO produced is released out of cells and mixed in the medium, being present as NO2^−, the amount of NO produced was determined by developing a color reaction and measuring optical density (OD570) after the addition of the Griess reagent to the a medium. Then, each amount of NO produced when (±)-DHM2EQ was applied at different concentrations was compared as a relative value by taking OD570 of the sample […] the addition of macrophage activating factor as 100%.
(§2) A cell suspension prepared at 4×10^5 cells/ml was plated at 200 μl/well in 96-well plates (Costar:Acton, Mass.). (±)-DHM2EQ was diluted at 0, 1, 3, and 10 μg/ml and added to each well of the plates. After 2-hour incubation under the condition of 37° C. in 5% CO2, IFN-γ (final concentration: 100 ng/ml) and LPS (final concentration: 10 μg/ml) were added to the wells and then the plates were incubated for 18 hours. 100 μl of the Griess reagent was added to each of the cell suspensions and allowed to react for 10 min, and then OD570 was measured with a microplate reader.

For experiment [9], the system named is RAW264.7 cells. Nature of the experiment: iNOS expression in LPS-activated RAW264.7 cells (Western blot). The experiment is classed as cell-based. The note with it: LPS 10 μg/ml, 24 h, 0, 1, 3, 10 μg/ml compound. How it is done: Since NO is produced by the enzyme iNOS within cells, it was examined whether this suppression results from suppression of iNOS expression.
Cells were plated in 100 mm dishes at 4×10^5 cells/ml, incubated overnight, and then (±)-DHM2EQ was added at final concentrations of 0, 1, 3, and 10 μg/ml. After 2 hours, LPS (final concentration: 10 μg/ml) was added to stimulate for 24 hours. Then, cell suspension was collected and centrifuged, and cells were lysed in 65 μl of prepared lysis buffer (50 mM Tris-HCl: pH 8.0, 1% NP-40, 20 mM EDTA, 100 mM NaVO4, 0.1 mg/ml leupeptin, 1 mM PMSF). Then, the supernatant of the cell lysate was isolated, each protein concentration was measured, and the predetermined mass of protein was boiled as a sample. This sample was subjected to SDS-PAGE and the proteins on the gel were transferred to a nitrocellulose membrane, which was then reacted with anti-iNOS antibody (Santa Cruz) followed by sheep anti-rabbit IgG antibody (Amersham). Subsequently, color was developed by the ECL detection system, and the signal was detected by exposing the membrane to the film (Fuji Photo Film)

The test system of experiment [10] is J774.1 cells. Put plainly: NO production in activated J774.1 cells (Griess reagent). In kind it is cell-based. The note with it: IFN-γ + LPS. How it is done:
as §1, §2
The effect of (±)-DHM2EQ on NO production in another activated macrophage-derived cell line, J774.1, was examined in the same manner as described in Example 1.
In general terms: The Griess reaction detects nitrite, a stable product of nitric oxide.

With `O=C(NC1=CC(=O)[C@H]2O[C@H]2[C@H]1O)c1ccccc1O` [(−)-DHM2EQ], the “inhibitory effect on NF-κB activation” value in experiment [1] was “stronger inhibitory effect on NF-κB activation than (±)-DHM2EQ”.
In the case of `O=C(NC1=CC(=O)C2OC2C1O)c1ccccc1O` (racemic) [(±)-DHM2EQ, 5,6-epoxy-4-hydroxy-3-salicyloylamino-2-cyclohexenone], the TNF-α production entry in experiment [2] is “suppresses TNF-α production depending on its treatment concentration”. The “phagocytosis of E. coli” value in [3] (IL-1β stimulation, pretreatment with 10 μg/ml compound) is “suppressed almost to the same level as the control”; in experiment [3] (LPS stimulation, pretreatment with 10 μg/ml compound) it was “suppressed almost to the same level as the control”; in experiment [3] (LPS stimulation, pretreatment, concentration series) it was “suppressed depending on its treatment concentration”. Moreover, in experiment [4], the IL-6 production result is given as “suppresses IL-6 production depending on its treatment concentration”. In [5], the IL-1β secretion entry is recorded as “suppresses the expression of IL-1β depending on its treatment concentration”. Further, the COX-2 production result in experiment [6] is given as “suppresses COX-2 production depending on its treatment concentration”. The “intracellular NO production (DAF-2DA fluorescence)” value in experiment [7] is recorded as “suppressed to the control level”. Besides, the NO production result is given as “suppressed depending on the concentration of (±)-DHM2EQ added” in experiment [8] (IFN-γ 100 ng/ml + LPS 10 μg/ml, 18 h, 0, 1, 3, 10 μg/ml compound); “suppressed almost to the control level” in [8] (IFN-γ + LPS, 10 μg/ml compound); “suppressed to the control level” in experiment [10] (10 μg/ml compound); “suppressed depending on (±)-DHM2EQ treatment concentration” in experiment [10] (concentration series). In experiment [9], the iNOS expression result is given as “suppresses the expression of iNOS depending on its treatment concentration”.
